# From patent publication US9499568B2, “Heterocyclic compound and use thereof” (Takeda Pharmaceutical Company Limited, priority 2010, dated 2016)
# Tested on: MAP-induced hyperlocomotion in male ICR mice
# Experiment: Inhibition of methamphetamine (MAP)-induced hyperlocomotion
# Type: in vivo
# Conditions: compound 10 mg/kg p.o. 60 min before MAP 2 mg/kg s.c., FIG. 1
# Description: Male ICR mice were supplied by CLEA Japan, Inc (Japan). After arrival to the vivarium, animals were allowed a minimum of 1 week for acclimation. They were housed under a 12:12-h light/dark cycle in a temperature- and humidity-controlled laboratory and allowed food and water ad libitum.
# A test compound was suspended in 0.5% methylcellulose in distilled water and orally administered (p.o.). Methamphetamine (Dainippon Sumitomo Pharma Co., Ltd.) was dissolved in saline and subcutaneously administered (s.c.). All drugs were dosed in a volume of 10 mL/kg body weight for mice.
# The widely used animal models of psychosis have been the measurement of the extent of hyperlocomotion induced by psychostimulants (e.g., amphetamine, cocaine, methamphetamine, MK-801 and phencyclidine) in rodents (Psychopharmacology 1999, vol. 145: 237-250). 4 compounds (A, B, C, D) were tested for its ability to antagonize MAP-induced hyperlocomotion in mice. Male ICR mice were habituated in the locomotor chambers with infrared sensors (BrainScienceldea Co., Ltd. Japan) to the experiment. After the habituation, animals were treated with either vehicle or the compounds (10 mg/kg, p.o.), and MAP (2 mg/kg, s.c.) was administrated 60 min later. Locomotion activities were measured, and accumulated counts (120 min after administration of MAP) were calculated in each treatment group. All data were represented as means plus the standard errors of the means (n=3-9) and analyzed using Student's t-test with significance set at **P<0.01 and ***P<0.001 or Welch's t-test with significance set at ^$P<0.05, ^$$P<0.01 and ^$$$P<0.001.
row,SMILES,inhibition of MAP-induced hyperlocomotion (accumulated locomotion counts 0-120 min)
1,"O=S1(=O)CCN2C=CC=C(c3ccc(Oc4ccccc4)cc3)C2=N1 [A, 9-(4-phenoxyphenyl)-3,4-dihydropyrido[2,1-c][1,2,4]thiadiazine 2,2-dioxide]",significant inhibition
2,"Cc1ccc(Oc2ccc(C3=CC=CN4CCS(=O)(=O)N=C34)cc2)cc1 [B, 9-[4-(4-methylphenoxy)phenyl]-3,4-dihydropyrido[2,1-c][1,2,4]thiadiazine 2,2-dioxide]",significant inhibition
3,"CC1=CN2CCS(=O)(=O)N=C2C(c2ccc(OC3CCCCC3)cc2)=N1 [C, 9-[4-(cyclohexyloxy)phenyl]-7-methyl-3,4-dihydropyrazino[2,1-c][1,2,4]thiadiazine 2,2-dioxide]",significant inhibition
4,"O=S1(=O)CCN2C=CC=C(c3ccc(OC4CCCCC4)cc3)C2=N1 [D, 9-[4-(cyclohexyloxy)phenyl]-3,4-dihydropyrido[2,1-c][1,2,4]thiadiazine 2,2-dioxide]",significant inhibition
